Assay results from paper PMC6321136, “Combined In Vitro Studies and in Silico Target Fishing for the Evaluation of the Biological Activities of Diphylleia cymosa and Podophyllum hexandrum” (Molecules, 2018).
Where two headings read alike, the source gives them in different places.

How the values were obtained:
Anticancer, Colon Tumor = system: Anticancer, Colon Tumor; design: method as in PubChem Bioassay AID 771; settings: ref PubChem Bioassay AID 771; cited from earlier work
[1] = DPPH radical scavenger activity
Protocol: The evaluation of the antioxidant activity using the 2,2-diphenyl-1-picrylhydrazyl radical (DPPH) was performed according to the method proposed by Mensor et al., with adaptations. The samples were dissolved in MeOH at concentrations ranging from 1.0 to 200 μg/mL. A portion of 250 μL of each sample was added to a 96-well microplate. MeOH and pyrogallol (50 µg/mL) were employed as negative and positive controls, respectively. Then, 100 μL of either MeOH (blank wells) or DPPH solution (120 μg/mL, reaction wells) was added to the microplate. The reading was performed on a microplate reader (EL808IU-Biotek model, Biotek, Winooski, VT, USA), at 5 min intervals for a total of 45 min, at 515 nm. The percentage of radical scavenging activity (%RSA) was calculated using the following equation: % RSA = ((AC − AS)/AC) × 100, where AC is the absorbance of control and AS is the absorbance of samples taken at 35 min. The results were expressed in EC50 (effective concentration for 50% capture of the radicals) determined by non-linear regression using GraphPad Prism, version 6.0.

[2] = system: Agonist, glucocorticoid receptor (GR); design: method as in PubChem Bioassay AID 720691; settings: ref PubChem Bioassay AID 720691; cited from earlier work
Anti-Inflammatory model [3] = system: Anti-Inflammatory model; design: method as in PubChem Bioassay AID 435020; settings: ref PubChem Bioassay AID 435020; cited from earlier work
Anticancer, Leukemia = system: Anticancer, Leukemia; design: method as in PubChem Bioassay AID 250; settings: ref PubChem Bioassay AID 250; cited from earlier work
[4] = target: T1, AChE from Electropardus electricous type VI-S (Electrophorus electricus, UniProt O42275); assay: AChE inhibition microplate assay (Ellman); type: biochemical; settings: 400 μg/mL; read-out: Inhibition of AChE Microplate (%I)
T1 construct: purchased Sigma-Aldrich, St. Louis, MO, USA type VI-S (catalogue number not given)
Protocol: AChE inhibition assay was performed on a 96-well microplate according to Ellman’s method with adaptations. Initially, the extracts were solubilized on MeOH, at 20 mg/mL, and diluted to 4 mg/mL using Tris/HCl buffer solution (50 mM, pH 8.0). A portion of 25 µL of the samples (4 mg/mL) were added to the wells of the microplate, as well as 50 μL of 0.1% BSA solution in Tris/HCl Buffe (pH 8.0), 125 μL of DTNB in Tris/HCl (3 mM) containing NaCl (10 mM) and MgCl2 (20 mM). Subsequently, 25 μL of the ATCI aqueous solution (15 mM) was added to all wells. Then, a background reading was performed at 405 nm using microplate reader (Multiskan Go, Thermo Scientific, Whaltham, MA, USA). The enzymatic reaction was initiated after the addition of 25 µL of AChE solution (AChE from Electropardus electricous type VI-S, 0.2 U/mL, Sigma-Aldrich, St. Louis, MO, USA) in Tris/HCl buffer (50 mM, pH 8.0) containing 0.1% BSA. The kinetic cycle was performed in a period of 25 min, with readings at 5 min intervals, at 405 nm. Physostigmine (Eserine, Sigma, St. Louis, MO, USA) was employed as the positive control. […] The assay was performed in triplicate and the % of inhibition (%I) was calculated according to the following equation: %I = [(a − b)/a] × 100, where a = ΔA/min of control; b = ΔA/min of test sample; ΔA = change in absorbance between time x and time zero. […]

[5] = system: Anticancer, non-Hodgkin lymphoma; design: method as in PubChem Bioassay AID 651558; settings: ref PubChem Bioassay AID 651558; cited from earlier work
[6] = system: Cytotoxicity, Agonist, vitamin D receptor (VDR); design: method as in PubChem Bioassay AID 743224; settings: ref PubChem Bioassay AID 743224; cited from earlier work
Anti-Inflammatory model [7] = system: Anti-Inflammatory model; design: method as in PubChem Bioassay AID 1267; settings: ref PubChem Bioassay AID 1267; cited from earlier work
Anti-Inflammatory model [8] = system: Anti-Inflammatory model; design: method as in PubChem Bioassay AID 602277; settings: ref PubChem Bioassay AID 602277; cited from earlier work
[9] = system: Antagonist, retinoid-related orphan receptor gamma (ROR-gamma); design: method as in PubChem Bioassay AID 1159521; settings: ref PubChem Bioassay AID 1159521; cited from earlier work
[10] = system: Agonist, constitutive androstane receptor (CAR); design: method as in PubChem Bioassay AID 1224839; settings: ref PubChem Bioassay AID 1224839; cited from earlier work
[11] = system: Agonist, androgen receptor (AR); design: method as in PubChem Bioassay AID 743040; settings: ref PubChem Bioassay AID 743040; cited from earlier work
Anti-Inflammatory model [12] = system: Anti-Inflammatory model; design: method as in PubChem Bioassay AID 438; settings: ref PubChem Bioassay AID 438; cited from earlier work
[13] = system: Antagonist, androgen receptor (AR); design: method as in PubChem Bioassay AID 1259243; settings: ref PubChem Bioassay AID 1259243; cited from earlier work
[14] = design: method as in Dar et al. [63]; settings: ref Dar et al. [63]; cited from earlier work
[15] = system: 1-acylglycerol-3-phosphate O-acyltransferase ABHD5; design: method as in PubChem Bioassay AID 493035; settings: ref PubChem Bioassay AID 493035; cited from earlier work
[16] = system: Agonist, glucocorticoid receptor (GR); design: method as in PubChem Bioassay AID 720719; settings: ref PubChem Bioassay AID 720719; cited from earlier work

T1 sequence (O42275 24-633): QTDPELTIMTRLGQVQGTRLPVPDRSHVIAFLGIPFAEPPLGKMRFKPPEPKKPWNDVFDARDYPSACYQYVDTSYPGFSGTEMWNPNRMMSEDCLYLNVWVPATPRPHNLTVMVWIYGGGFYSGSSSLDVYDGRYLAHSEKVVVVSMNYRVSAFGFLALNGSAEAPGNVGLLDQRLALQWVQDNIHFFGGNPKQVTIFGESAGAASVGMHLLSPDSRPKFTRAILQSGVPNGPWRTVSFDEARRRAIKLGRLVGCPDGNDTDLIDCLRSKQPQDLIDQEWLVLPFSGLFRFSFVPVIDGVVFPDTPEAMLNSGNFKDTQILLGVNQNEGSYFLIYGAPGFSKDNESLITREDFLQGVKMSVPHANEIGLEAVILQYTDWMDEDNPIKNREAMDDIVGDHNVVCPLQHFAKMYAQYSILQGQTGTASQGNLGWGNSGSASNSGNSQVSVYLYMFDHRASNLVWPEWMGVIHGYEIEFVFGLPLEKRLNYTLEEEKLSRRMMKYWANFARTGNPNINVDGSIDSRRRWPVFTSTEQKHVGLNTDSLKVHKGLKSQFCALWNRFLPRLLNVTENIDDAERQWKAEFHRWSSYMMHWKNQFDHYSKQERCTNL

For `COc1cc([C@@H]2c3cc4c(cc3[C@H](O)[C@H]3COC(=O)[C@H]23)OCO4)cc(OC)c1OC` [Podophyllotoxin, podophyllotoxin], the “Exper. Activity” value (Anticancer, Colon Tumor) is given as “Inactive”, the “Antioxidant Activity (IC50-µg/mL) DPPH Radical Sequestration” value [1] is given as over 200 µg/mL and the “Exper. Activity” value [2] is given as “Inactive”. The “Exper. Activity” value (Anti-Inflammatory model [3]) was “Active”, the “Exper. Activity” value (Anticancer, Leukemia) was “Inactive” and the inhibition at 400 µg/mL [4] was 32.7 ± 5.38%. The “Exper. Activity” value [5] was “Active”, the “Exper. Activity” value [6] was “Inactive” and the “Exper. Activity” value (Anti-Inflammatory model [7]) was “Inactive”. For the same compound, the “Exper. Activity” value (Anti-Inflammatory model [8]) was “Active”, the “Exper. Activity” value [9] was “Active” and the “Exper. Activity” value [10] was “Inactive”. The “Exper. Activity” value [11] was “Inactive”, the “Exper. Activity” value (Anti-Inflammatory model [12]) was “Active” and the “Exper. Activity” value [13] was “Inactive”. The “IC50 DPPH sequestration” value [14] was “higher than 250 μg/mL”, the “Exper. Activity” value [15] was “Inactive” and the “Exper. Activity” value [16] was “Inactive”.
